Holding throughout (type): in vivo
Experiment [1] deals with house fly (Musca domeestica). Nature of the experiment: Test Example 3: treated filter paper with sucrose bait, house fly female adults, mortality. The note with it: 24 h. The protocol:
On the bottom of a polyethylene cup of 5.5 cm in diameter was placed a filter paper of the same size, to which a water dilution (500 ppm) of each of the formulations obtained from present compounds 1, 2, 3, 4, 5, 6, 7, 8, 9, 10, 11, 12, 13, 14, 15, 16, 17, 18, 19, 20, 21, 25, 26, 27, 28, 29, 32, 33, 34, 35, 36, 37, 38, 39, 40, 41, 42, 43, 44, 45, 47, 51, 52, 53, 54, 55, 60, and 61 according to Formulation Example 1 was added dropwise in an amount of 0.7 ml, and the cup was uniformly charged with about 30 mg of sucrose as a bait. Ten female adults of house fly (Musca domeestica) were set free in each cup, which was then kept covered. After 1 day, their survival was examined to determine the mortality.

The subject of experiment [2] is German cockroach (Blattella germanica). Nature of the experiment: Test Example 2: treated filter paper with sucrose bait, German cockroach male adults, mortality. The note with it: 144 h.
Experiment [3] deals with common mosquito (Culex pipiens pallens). Put plainly: Test Example 4: treated water, common mosquito final-instar larvae, mortality. The note with it: 192 h.
Setting [4] is: active ingredient 3.5 ppm in ion-exchanged water (0.7 ml of 500 ppm dilution), final-instar larvae, after 8 days, read-out: mortality.
Where [5] appears, read: water dilution (500 ppm) of flowable (Formulation Example 1), 0.7 ml on filter paper, male adults, after 6 days, read-out: mortality.

Molecules are shown by their SMILES. Like-named read-outs stand apart in the source and are kept apart here.

For `NC(=Nc1c(Cl)cc(C(F)(F)F)cc1[N+](=O)[O-])C(F)(F)F` [present compound 1, N-(2-chloro-6-nitro-4-trifluoromethylphenyl)-2,2,2-trifluoroacetamidine], the mortality at 500 µg/mL in experiment [1] and in experiment [2] was 100% throughout.

For the compound `NC(=Nc1c(F)cc(C(F)(F)F)cc1F)C(F)(F)F` [present compound 2, N-(2,6-Difluoro-4-trifluoromethylphenyl)-2,2,2-trifluoroacetamidine], the mortality at 500 µg/mL in experiment [1] and in experiment [2] was 100% throughout.

Turning to `NC(=Nc1c(Cl)cc(C(F)(F)F)cc1Cl)C(F)(F)F` [present compound 3, N-(2,6-Dichloro-4-trifluoromethylphenyl)-2,2,2-trifluoroacetamidine], the mortality at 500 µg/mL in experiment [1] and in experiment [2] was 100% throughout. This compound gave a mortality at 3.5 ppm in experiment [3] of 100%.

On to `NC(=Nc1c(Cl)cc(C(F)(F)F)cc1Cl)C(F)(F)C(F)(F)F` [present compound 4, N-(2,6-dichloro-4-trifluoromethylphenyl)-2,2,3,3,3-pentafluoropropionamidine], for which the mortality at 500 µg/mL in experiment [1] and in experiment [2] was 100% in each case. In experiment [3], this compound showed a mortality at 3.5 ppm of 100%.

`NC(=Nc1c(Cl)cc(C(F)(F)F)cc1Cl)C(F)(F)Cl` [present compound 5, 2-Chloro-N-(2,6-dichloro-4-trifluoromethylphenyl)-2,2-difluoroacetamidine]: the mortality at 500 µg/mL in experiment [1] and in experiment [2] was 100% throughout. This compound also displayed a mortality at 3.5 ppm in experiment [3] of 100%.

With `NC(=Nc1c([N+](=O)[O-])cc(C(F)(F)F)cc1[N+](=O)[O-])C(F)(F)C(F)(F)F` [present compound 6, N-(2,6-Dinitro-4-trifluoromethylphenyl)-2,2,3,3,3-pentafluoropropionamidine], the mortality at 500 µg/mL in experiment [1] and in experiment [2] was 100% in each case. For the same compound, the mortality at 3.5 ppm in experiment [3] is 100%.

With `NC(=Nc1c(Cl)cc(C(F)(F)F)cc1Cl)C(F)F` [present compound 7, N-(2,6-Dichloro-4-trifluoromethylphenyl)-2,2-difluoroacetamidine], the mortality at 500 µg/mL in experiment [1] and in experiment [2] was 100% each time.

For the compound `NC(=Nc1c(Cl)cc(C(F)(F)F)cc1[N+](=O)[O-])C(F)(F)C(F)(F)F` [present compound 8, N-(2-Chloro-6-nitro-4-trifluoromethylphenyl)-2,2,3,3,3-pentafluoropropionamidine], the mortality at 500 µg/mL in experiment [1] and in experiment [2] was 100% in each case. Also, in experiment [3], the mortality at 3.5 ppm was determined as 100%.

Consider `NC(=Nc1c(F)cc(C(F)(F)F)cc1F)C(F)(F)C(F)(F)F` [present compound 9, N-(2,6-Difluoro-4-trifluoromethylphenyl)-2,2,3,3,3-pentafluoropropionamidine], for which the mortality at 500 µg/mL in experiment [1] and in experiment [2] was 100% in each case. Moreover, the mortality at 3.5 ppm in experiment [3] stood at 100%.

In the case of `NC(=Nc1c(Cl)cc(C(F)(F)F)cc1Br)C(F)(F)C(F)(F)F` [present compound 10, N-(2-Bromo-6-chloro-4-trifluoromethylphenyl)-2,2,3,3,3-pentafluoropropionamidine], the mortality at 500 µg/mL in experiment [1] and in experiment [2] was 100% each time. The compound also registered a mortality at 3.5 ppm in experiment [3] of 100%.

`NC(=Nc1c(Cl)cc(C(F)(F)F)cc1Cl)C(F)(F)C(F)(F)C(F)(F)F` [present compound 11, N-(2,6-Dichloro-4-trifluoromethylphenyl)-2,2,3,3,4,4,4-heptafluorobutyramidine]: the mortality at 500 µg/mL was 100% in experiment [1] (water dilution (500 ppm) of flowable (Formulation Example 1), 0.7 ml on filter paper, female adults, after 1 day, read-out: mortality) and 100% in experiment [2] (setting [5]). The mortality at 3.5 ppm in experiment [3] (setting [4]) stood at 100%.

`NC(=Nc1c(Cl)cc(C(F)(F)F)cc1Cl)C(Cl)Cl` [present compound 12, 2,2-Dichloro-N-(2,6-dichloro-4-trifluoromethylphenyl)acetamidine]: the mortality at 500 µg/mL in experiment [1] and in experiment [2] was 100% in each case. In addition, the mortality at 3.5 ppm in experiment [3] came to 100%.

For the compound `NC(=Nc1c(F)cc(C(F)(F)F)cc1Cl)C(F)(F)F` [present compound 13, N-(2-Chloro-6-fluoro-4-trifluoromethylphenyl)-2,2,2-trifluoroacetamidine], the mortality at 500 µg/mL in experiment [1] and in experiment [2] was 100% throughout. The mortality at 3.5 ppm in experiment [3] turned out to be 100%.

In the case of `N#Cc1cc(C(F)(F)F)cc(Cl)c1N=C(N)C(F)(F)C(F)(F)F` [present compound 14, N-(2-Chloro-6-cyano-4-trifluoromethylphenyl)-2,2,3,3,3-pentafluoropropionamidine], the mortality at 500 µg/mL in experiment [1] and in experiment [2] was 100% in each case. This compound also showed a mortality at 3.5 ppm in experiment [3] of 100%.

On to `Cc1cc(C(F)(F)F)cc(Cl)c1N=C(N)C(F)(F)C(F)(F)F` [present compound 15, N-(2-Chloro-6-methyl-4-trifluoromethylphenyl)-2,2,3,3,3-pentafluoropropionamidine], for which the mortality at 500 µg/mL in experiment [1] and in experiment [2] was 100% throughout. For the same compound, in experiment [3], the mortality at 3.5 ppm is 100%.

Turning to `NC(=Nc1c(Br)cc(OC(F)(F)F)cc1Br)C(F)(F)C(F)(F)F` [present compound 16, N-(2,6-Dibromo-4-trifluoromethoxyphenyl)-2,2,3,3,3-pentafluoropropionamidine], the mortality at 500 µg/mL in experiment [1] and in experiment [2] was 100% throughout. In experiment [3], this compound showed a mortality at 3.5 ppm of 100%.

`NC(=Nc1c(Cl)cc(C(F)(F)F)cc1Cl)C(F)(F)C(F)(F)C(F)(F)C(F)(F)F` [present compound 30, N-(2,6-Dichloro-4-trifluoromethylphenyl)-2,2,3,3,4,4,5,5,5-nonafluoropentanamidine]: in experiment [3] (setting [4]), the mortality at 3.5 ppm came out at 100%. For the same compound, the mortality at 500 µg/mL in experiment [2] (setting [5]) amounted to 100%.

Regarding `NC(=Nc1c(Cl)cc(C(F)(F)F)cc1Cl)C(F)(F)C(F)(F)C(F)(F)C(F)(F)C(F)(F)F` [present compound 31, N-(2,6-Dichloro-4-trifluoromethylphenyl)-2,2,3,3,4,4,5,5,6,6,6-undecafluorohexanamidine], the mortality at 3.5 ppm in experiment [3] (setting [4]) was 100%.

Consider `NC(=Nc1c([N+](=O)[O-])cc(C(F)(F)F)cc1[N+](=O)[O-])C(F)(F)F` [present compound 33, N-(2,6-Dinitro-4-trifluoromethylphenyl)-2,2,2-trifluoroacetamidine], for which the mortality at 500 µg/mL in experiment [1] and in experiment [2] was 100% in each case.

Regarding `NC(=Nc1c([N+](=O)[O-])cc(C(F)(F)C(F)(F)C(F)(F)F)cc1[N+](=O)[O-])C(F)(F)C(F)(F)C(F)(F)F` [present compound 48, N-(2,6-Dinitro-4-heptafluoropropylphenyl)-2,2,3,3,4,4,4-heptafluorobutyramidine], the mortality at 3.5 ppm in experiment [3] is 100%.

In experiment [3], `NC(=Nc1c([N+](=O)[O-])cc(C(F)(F)C(F)(F)C(F)(F)F)cc1[N+](=O)[O-])C(F)(F)F` [present compound 49, N-(2,6-Dinitro-4-heptafluoropropylphenyl)-2,2,2-trifluoroacetamidine] showed a mortality at 3.5 ppm of 100%. This compound also registered a mortality at 500 µg/mL in experiment [2] of 100%.

In experiment [3], `NC(=Nc1c([N+](=O)[O-])cc(C(F)(C(F)(F)F)C(F)(F)F)cc1[N+](=O)[O-])C(F)(F)C(F)(F)C(F)(F)F` [present compound 50, N-{2,6-Dinitro-4-(1,2,2,2-tetrafluoro-1-trifluoromethylethyl)phenyl}-2,2,3,3,4,4,4-heptafluorobutyramidine] showed a mortality at 3.5 ppm of 100%. The mortality at 500 µg/mL in experiment [2] came to 100%.

In the case of `CN(C)C(=Nc1c(Cl)cc(C(F)(F)F)cc1Cl)C(F)(F)F` [present compound 52, N′-(2,6-dichloro-4-trifluoromethylphenyl)-2,2,2-trifluoro-N,N-dimethylacetamidine], the mortality at 500 µg/mL in experiment [1] and in experiment [2] was 100% in each case.

For the compound `CCCN(CCC)C(=Nc1c(Cl)cc(C(F)(F)F)cc1Cl)C(F)(F)F` [present compound 56, N′-(2,6-dichloro-4-trifluoromethylphenyl)-2,2,2-trifluoro-N,N-dipropylacetamidine], the mortality at 500 µg/mL in experiment [2] came out at 100%.

Regarding `CCN(CC)C(=Nc1c(Cl)cc(C(F)(F)F)cc1Cl)C(F)(F)F` [present compound 57, N′-(2,6-Dichloro-4-trifluoromethylphenyl)-N,N-diethyl-2,2,2-trifluoroacetamidine], the mortality at 3.5 ppm in experiment [3] stood at 100%. The mortality at 500 µg/mL in experiment [2] is 100%.

`CCNC(=Nc1c(Cl)cc(C(F)(F)F)cc1Cl)C(Cl)Cl` [present compound 58, N′-(2,6-Dichloro-4-trifluoromethylphenyl)-2,2-dichloro-N-ethylacetamidine] yielded a mortality at 3.5 ppm in experiment [3] of 100%. This compound also displayed a mortality at 500 µg/mL in experiment [2] of 100%.

With `CCNC(=Nc1c([N+](=O)[O-])cc(C(F)(F)F)cc1[N+](=O)[O-])C(Cl)Cl` [present compound 59, 2,2-Dichloro-N′-(2,6-dinitro-4-trifluoromethylphenyl)-N-ethylacetamidine], in experiment [3], the mortality at 3.5 ppm was determined as 100%. The compound further came in with a mortality at 500 µg/mL in experiment [2] of 100%.

These data come from US6376710B2, “Amidine compounds and their use as pesticides” (Sumitomo Chemical Co., Ltd., priority 2000, dated 2002).
